Experimental data: publication PMC10030467 (Nature Communications, 2023)
Where a chain is given by its changes, count along the chain named. pKd: −log10 of the molar value.

What was measured:
Assay in all cases: microscale thermophoresis
Format in all cases: binding
CC-SPRY = target: T1, CC-SPRY (Homo sapiens, UniProt Q6ZMU5); details: 50 mM Tris pH 8.0, 80 mM NaCl, 0.05% Tween 20, 0.3 mM TCEP; room temperature; GFP-labelled protein
T1 construct: gene TRIM72; coiled-coil plus SPRY; E. coli; GFP-labelled for MST; dimer
T1 sequence (Q6ZMU5 122-477): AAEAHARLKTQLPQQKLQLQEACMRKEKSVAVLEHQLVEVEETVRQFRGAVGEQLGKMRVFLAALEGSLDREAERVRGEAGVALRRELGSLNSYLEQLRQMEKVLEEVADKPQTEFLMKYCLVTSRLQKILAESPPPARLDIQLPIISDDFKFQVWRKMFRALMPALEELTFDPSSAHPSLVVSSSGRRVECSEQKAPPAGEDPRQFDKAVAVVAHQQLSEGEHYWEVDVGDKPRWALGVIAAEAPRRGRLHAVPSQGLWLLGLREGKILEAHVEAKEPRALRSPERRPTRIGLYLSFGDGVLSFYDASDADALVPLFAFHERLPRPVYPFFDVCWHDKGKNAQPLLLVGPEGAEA

[1] = target: T2, TRIM72 (full-length; also MG53) (Homo sapiens, UniProt Q6ZMU5); details: 50 mM Tris pH 8.0, 80 mM NaCl, 0.05% Tween 20, 0.3 mM TCEP; room temperature; GFP-labelled protein
T2 construct: full-length residues 2-477; E. coli Rosetta (DE3), His-Sumo cut by Ulp1; GFP-labelled for MST, FLAG-tagged for PIP-Strips; dimer
T2 sequence (Q6ZMU5 2-477): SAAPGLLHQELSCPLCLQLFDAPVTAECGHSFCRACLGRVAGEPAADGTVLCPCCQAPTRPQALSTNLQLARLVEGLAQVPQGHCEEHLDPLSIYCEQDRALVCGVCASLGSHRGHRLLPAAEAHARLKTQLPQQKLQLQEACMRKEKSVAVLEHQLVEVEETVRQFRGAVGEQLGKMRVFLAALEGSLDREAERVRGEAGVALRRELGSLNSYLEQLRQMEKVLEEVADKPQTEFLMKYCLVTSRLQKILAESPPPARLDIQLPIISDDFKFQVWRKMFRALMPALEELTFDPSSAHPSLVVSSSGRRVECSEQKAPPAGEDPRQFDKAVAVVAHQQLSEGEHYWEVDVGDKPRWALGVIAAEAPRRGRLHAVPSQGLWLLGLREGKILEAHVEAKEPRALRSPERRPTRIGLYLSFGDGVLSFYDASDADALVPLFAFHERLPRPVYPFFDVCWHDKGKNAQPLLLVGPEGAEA

SPRY domain = target: T3, SPRY domain (Homo sapiens, UniProt Q6ZMU5); details: 50 mM Tris pH 8.0, 80 mM NaCl, 0.05% Tween 20, 0.3 mM TCEP; room temperature; GFP-labelled protein
T3 construct: gene TRIM72; SPRY domain, residues 278-477; E. coli; GFP-labelled for MST; monomer
T3 sequence (Q6ZMU5 278-477): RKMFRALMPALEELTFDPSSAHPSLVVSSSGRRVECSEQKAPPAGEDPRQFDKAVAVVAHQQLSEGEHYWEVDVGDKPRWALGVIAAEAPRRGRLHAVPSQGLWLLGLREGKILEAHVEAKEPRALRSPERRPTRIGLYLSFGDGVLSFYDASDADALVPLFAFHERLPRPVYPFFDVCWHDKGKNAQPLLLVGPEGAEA

[2] = target: T4, coiled-coil domain alone (121-277) (Homo sapiens, UniProt Q6ZMU5); details: 50 mM Tris pH 8.0, 80 mM NaCl, 0.05% Tween 20, 0.3 mM TCEP; room temperature; GFP-labelled protein
T4 construct: gene TRIM72; coiled-coil domain, residues 121-277; E. coli; GFP-labelled for MST
T4 sequence (Q6ZMU5 121-277): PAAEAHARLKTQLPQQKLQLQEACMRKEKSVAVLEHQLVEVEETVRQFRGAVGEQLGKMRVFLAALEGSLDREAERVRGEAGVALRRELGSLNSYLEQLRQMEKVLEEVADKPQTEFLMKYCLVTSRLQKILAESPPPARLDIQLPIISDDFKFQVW

[3] = target: T5, TRIM72 (full-length; also MG53) (Homo sapiens, UniProt Q6ZMU5, R169A/R180A/R198A)
T5 construct: full-length residues 2-477; E. coli Rosetta (DE3), His-Sumo cut by Ulp1; GFP-labelled for MST, FLAG-tagged for PIP-Strips; dimer
T5 sequence (Q6ZMU5 2-477 R169A/R180A/R198A): T2 sequence (Q6ZMU5 2-477) with R168A, R179A, R197A

pKd (CC-SPRY): ~5.00 | pKd [1]: ~5.00 | pKd (SPRY domain): ~5.33 | pKd [2]: ~4.71 | pKd [3]: ~4.42
SMILES: N[C@@H](COP(=O)(O)O)C(=O)O [phospho-L-serine]
